Laboratory results published in patent publication US20220233594A1, “TARGETING OTUB1 IN IMMUNOTHERAPY” (Board of Regents, The University ofTexas System, priority 2019, published 2022).

Columns and labels:
Type in all cases: cell-based, mouse
[1] = test system: WT or Otub1-TKO naive OT-I CD8 T cells; experiment: Seahorse analysis of extracellular acidification rate (ECAR) with AKT inhibitor; details: activated with anti-CD3 plus anti-CD28 for 24 h; AKTi 3 μM vs DMSO
Protocol: Metabolic assays. OCR and ECAR were measured with an XF96 extracellular flux analyzer (Seahorse Bioscience) following the manufacturer's instruction. Briefly, WT or Otub1-TKO CD8 naive T cells, either freshly isolated or in vitro activated with anti-CD3 plus anti-CD28 (for 24 h), were seeded in XF96 microplates (150,000 cells/well). The plates were quickly centrifuged to immobilize the cells. After incubation in a non-buffered assay medium (Seahorse Biosciences) in a non-CO2 incubator for 30 min, the cells were subjected to glycolysis assays with a XF glycolysis stress test kit (Seahorse Biosciences). Initial measurement of ECAR was done when cells were incubated in a glycolysis stress test medium without glucose to record the baseline. Glucose (10 mM) was then injected to induce ECAR, reflecting glycolysis rate under basal conditions. Subsequently, oligomycin (1 μM) was injected to inhibit mitochondrial ATP production and shift the energy production to glycolysis, thereby measuring the maximum glycolytic capacity (also called stressed ECAR). Finally, a glucose analog, 2-deoxy-glucose (2-DG, 100 mM) was injected to inhibit glycolysis through targeting glucose hexokinase, resulting in decreased ECAR that served as a measure to confirm the glycolysis-dependence of the detected ECAR. […]

[2] = test system: WT or Otub1-TKO naive OT-I CD8 T cells; experiment: qRT-PCR analysis of Glut1 and Hk2 expression with AKT inhibitor; details: stimulated with anti-CD3 plus anti-CD28; AKTi vs DMSO
Protocol: Real-time quantitative PCR. RNA was extracted with TRIzol reagent from isolated WT OT-I or Otub1-TKO OT-I CD8 T cells. The RNA samples were subjected to quantitative PCR analyses using the SYBR regent (Bio-Rad). The expression of individual genes was calculated by a standard curve method and was normalized to the expression of Actb.

[3] = test system: WT or Otub1-TKO naive OT-I CD8 T cells; experiment: ELISA of cytokines in culture supernatant with AKT inhibitor; details: stimulated with anti-CD3 plus anti-CD28 for 66 h; AKTi vs DMSO
Protocol: T-cell and NK cell purification and in vitro treatments. CD8 and CD4 T cells were isolated from splenocytes with anti-CD8- or anti-CD4-conjugated magnetic beads (Miltenyi), and naive CD8 or CD4 T cells were further purified by FACS sorting to get CD44^loCD62L^hi population. The naive T cells were stimulated in replicate wells of 96-well plates (1×10^5 cells per well) for 66 h, and the culture supernatants were analyzed by ELISA (eBioScience).

For O=c1[nH]c2ccccc2n1C1CCN(Cc2ccc(-c3nc4cc5[nH]cnc5cc4nc3-c3ccccc3)cc2)CC1 [AKTi], which “extracellular acidification rate (ECAR)” value [1] is on record?
Its value is “erased the ECAR differences between WT and Otub1-TKO CD8 T cells”.

What about the “Glut1 and Hk2 expression (qRT-PCR)” value [2] of the same compound?
Its value is “blocked TCR-CD28-stimulated hyper-expression of the glycolysis-regulatory genes, Glut1 and Hk2”.

What about the “cytokine production (ELISA, culture supernatant)” value [3] of the same compound?
The value was “blocked”.
